Some test systems named below: MDA-N; HCT-15 colon; SK-MEL-2 melanoma; SK-MEL-5 melanoma; RPMI-8226 leukemia; UO-31 renal; SK-OV-3 ovarian; A498 renal; OVCAR-3 ovarian; SF-268 CNS; NCI/ADR-RES ovarian; HT29 colon; HL-60(TB) leukemia; UACC-257 melanoma; SN12C renal; RXF 393 renal.
Common to all, as to test: DTP human tumour cell line panel, 48 h

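How tested: cells in 96-well plates exposed to compound for 48 hours at five concentrations. At the TGI there is no net growth.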

For the compound `Cc1ccc(N2C(=O)C(=O)N(/N=C3\C(=O)Nc4ccccc43)C2=S)cc1`, the TGI in the assay with MDA-N, with HCT-15 colon, with SK-MEL-2 melanoma, with SK-MEL-5 melanoma, in the assay on RPMI-8226 leukemia and in the assay with UO-31 renal was above 100 µM throughout. In addition, the TGI in the assay on SK-OV-3 ovarian, in the assay on A498 renal, with OVCAR-3 ovarian, in the assay with SF-268 CNS, in the assay with NCI/ADR-RES ovarian and in the assay with HT29 colon was above 100 µM in each case. The TGI – broadly, the concentration giving total growth inhibition – in the assay on HL-60(TB) leukemia is 25.4 µM; in the assay on UACC-257 melanoma, above 100 µM; with SN12C renal, above 100 µM; in the assay with RXF 393 renal it was above 100 µM.

Consider `Nc1nc(NCCOCP(=O)(O)O)c(N)c(=O)[nH]1`, for which the TGI in the assay with MDA-N, with HCT-15 colon, in the assay on SK-MEL-2 melanoma, with SK-MEL-5 melanoma, in the assay on RPMI-8226 leukemia and in the assay with UO-31 renal was above 100 µM throughout. Also, the concentration for total growth inhibition (TGI) in the assay with SK-OV-3 ovarian, in the assay on A498 renal, in the assay with OVCAR-3 ovarian, in the assay on SF-268 CNS, in the assay with NCI/ADR-RES ovarian and in the assay on HT29 colon was above 100 µM each time. Moreover, the total growth inhibition concentration (TGI) with HL-60(TB) leukemia, in the assay on UACC-257 melanoma, with SN12C renal and in the assay with RXF 393 renal was above 100 µM in each case.

As for `CC(C)(C)N=c1n(C(C)(C)C)oc(=O)n1-c1ccccc1`, the concentration for total growth inhibition (TGI) in the assay on MDA-N, in the assay on HCT-15 colon, in the assay on SK-MEL-2 melanoma, in the assay on SK-MEL-5 melanoma, in the assay with RPMI-8226 leukemia and in the assay on UO-31 renal was above 50 µM each time. For the same compound, the TGI in the assay with SK-OV-3 ovarian, in the assay on A498 renal, with OVCAR-3 ovarian, in the assay with SF-268 CNS, with NCI/ADR-RES ovarian and in the assay on HT29 colon was above 50 µM in each case. Moreover, the TGI with HL-60(TB) leukemia, with UACC-257 melanoma, with SN12C renal and in the assay with RXF 393 renal was above 50 µM in each case.

`CC/C=C/C(/C=C/C[C@]1(CC)C[C@H](CC)[C@H](CC(=O)O)OO1)CC` (stereo partly drawn): the TGI in the assay on MDA-N worked out at 3.71 µM; with HCT-15 colon, 8.97 µM; in the assay on SK-MEL-2 melanoma, 9.11 µM; in the assay on SK-MEL-5 melanoma, 10.1 µM; in the assay with RPMI-8226 leukemia it was 4.43 µM; in the assay with UO-31 renal, 0.947 µM. The TGI stood at 19.2 µM in the assay with SK-OV-3 ovarian; 28.9 µM in the assay on A498 renal; 4.17 µM with OVCAR-3 ovarian; 9.57 µM with SF-268 CNS; 4.79 µM in the assay on NCI/ADR-RES ovarian; 3.98 µM in the assay on HT29 colon. The concentration for total growth inhibition (TGI) in the assay with HL-60(TB) leukemia was determined as 4.76 µM; in the assay with UACC-257 melanoma, 28.9 µM; in the assay with SN12C renal it was 14.7 µM; in the assay on RXF 393 renal, 6.3 µM.

As for `CC(=O)Nc1nnc(S(=O)(=O)NC(=S)Nc2ccc(Cl)cc2)s1`, the TGI in the assay on MDA-N, in the assay with HCT-15 colon, in the assay on SK-MEL-2 melanoma, with SK-MEL-5 melanoma, with RPMI-8226 leukemia and with UO-31 renal was above 100 µM each time. Also, the TGI in the assay with SK-OV-3 ovarian, with A498 renal, with OVCAR-3 ovarian, with SF-268 CNS, in the assay with NCI/ADR-RES ovarian and in the assay with HT29 colon was above 100 µM in each case. Besides, the TGI in the assay on HL-60(TB) leukemia, with UACC-257 melanoma, in the assay on SN12C renal and in the assay with RXF 393 renal was above 100 µM each time.

For the compound `COc1ccc(N2C(=O)C3c4[nH]c5ccc(OCc6ccccc6)cc5c4C4CCC(C(C)C)CC4C3C2=O)cc1` (stereo not drawn), the TGI with MDA-N was above 100 µM; in the assay on HCT-15 colon, above 100 µM; with SK-MEL-2 melanoma, 40.3 µM; with SK-MEL-5 melanoma, above 100 µM; in the assay with RPMI-8226 leukemia, above 100 µM; in the assay with UO-31 renal it was above 100 µM. Also, the TGI in the assay on SK-OV-3 ovarian is 43 µM; with A498 renal it was 25.4 µM; in the assay on OVCAR-3 ovarian it was above 100 µM; in the assay with SF-268 CNS it was above 100 µM; in the assay with NCI/ADR-RES ovarian it was above 100 µM; in the assay on HT29 colon, above 100 µM. The TGI was 23.9 µM in the assay with HL-60(TB) leukemia, above 100 µM in the assay on UACC-257 melanoma, above 100 µM in the assay with SN12C renal and 32.9 µM in the assay with RXF 393 renal.

On to `COC(=O)CCC(C)[C@H]1CCC2C3C(C[C@H](OC(C)=O)[C@@]21C)[C@@]1(C)CCC2(C[C@H]1C[C@H]3OC(C)=O)OOC1(CCCCC1)OO2` (stereo partly drawn), for which the TGI was above 100 µM in the assay on MDA-N; above 100 µM in the assay with HCT-15 colon; above 100 µM in the assay on SK-MEL-2 melanoma; above 100 µM in the assay with SK-MEL-5 melanoma; 6.43 µM in the assay on RPMI-8226 leukemia; 25.7 µM in the assay with UO-31 renal. Further, the TGI with SK-OV-3 ovarian, in the assay with A498 renal, with OVCAR-3 ovarian, in the assay with SF-268 CNS, in the assay on NCI/ADR-RES ovarian and with HT29 colon was above 100 µM throughout. In addition, the TGI in the assay on HL-60(TB) leukemia, in the assay on UACC-257 melanoma, with SN12C renal and in the assay with RXF 393 renal was above 100 µM in each case.

For the compound `COc1cccc(C(=O)N[C@@H]2[C@H](O)[C@@H](CO)O[C@H]2n2cnc3c(N)ncnc32)c1`, the TGI in the assay with MDA-N, with HCT-15 colon, with SK-MEL-2 melanoma, with SK-MEL-5 melanoma, with RPMI-8226 leukemia and with UO-31 renal was above 100 µM each time. Besides, the total growth inhibition concentration (TGI) in the assay on SK-OV-3 ovarian, in the assay on A498 renal, with OVCAR-3 ovarian, in the assay with SF-268 CNS, with NCI/ADR-RES ovarian and in the assay with HT29 colon was above 100 µM each time. Also, the TGI with HL-60(TB) leukemia, in the assay on UACC-257 melanoma, in the assay on SN12C renal and in the assay with RXF 393 renal was above 100 µM throughout.

With `CC(C)(CN)SCc1ccccc1`, the TGI with MDA-N, in the assay with HCT-15 colon, in the assay with SK-MEL-2 melanoma, in the assay with SK-MEL-5 melanoma, in the assay on RPMI-8226 leukemia and in the assay with UO-31 renal was above 100 µM each time. Further, the TGI with SK-OV-3 ovarian, with A498 renal, with OVCAR-3 ovarian, with SF-268 CNS, in the assay on NCI/ADR-RES ovarian and in the assay with HT29 colon was above 100 µM in each case. The TGI in the assay with HL-60(TB) leukemia, in the assay with UACC-257 melanoma, in the assay with SN12C renal and with RXF 393 renal was above 100 µM in each case.

For the compound `O=c1c(Sc2ncccn2)c(Sc2ncccn2)cnn1CCl`, the TGI in the assay on MDA-N is 5.59 µM; with HCT-15 colon it was 11.8 µM; in the assay with SK-MEL-2 melanoma, 5.88 µM; in the assay with SK-MEL-5 melanoma, 21.2 µM; with RPMI-8226 leukemia it was above 20.6 µM; in the assay with UO-31 renal, 3.45 µM. In addition, the TGI is 23.2 µM in the assay on SK-OV-3 ovarian; 36.3 µM in the assay on A498 renal; 10.8 µM with OVCAR-3 ovarian; 9.57 µM with SF-268 CNS; 24.4 µM in the assay with NCI/ADR-RES ovarian; 4.67 µM in the assay on HT29 colon. Besides, the TGI with HL-60(TB) leukemia was determined as 5 µM; in the assay with UACC-257 melanoma it was 6.77 µM; in the assay with SN12C renal, 9.37 µM; in the assay with RXF 393 renal, 3.46 µM.

As to `CCc1n[nH]c(=S)n1/N=C\c1ccc(-c2ccccc2[N+](=O)[O-])o1`, the TGI with MDA-N is 39.2 µM; in the assay with HCT-15 colon, above 100 µM; in the assay on SK-MEL-2 melanoma it was above 100 µM; in the assay with SK-MEL-5 melanoma, 33.7 µM; with RPMI-8226 leukemia it was 88.1 µM; in the assay on UO-31 renal it was above 100 µM. Further, the TGI in the assay with SK-OV-3 ovarian is above 100 µM; in the assay with A498 renal it was above 100 µM; with OVCAR-3 ovarian it was 46.8 µM; with SF-268 CNS it was above 100 µM; in the assay with NCI/ADR-RES ovarian it was 81.5 µM; in the assay on HT29 colon it was above 100 µM. The TGI in the assay on HL-60(TB) leukemia, in the assay with UACC-257 melanoma, with SN12C renal and in the assay on RXF 393 renal was above 100 µM each time.

Take `C[N+]12CCCCC1C(CN1C(=O)c3ccccc3C1=O)CCC2` (stereo not drawn): the total growth inhibition concentration (TGI) in the assay with MDA-N, in the assay with HCT-15 colon, in the assay with SK-MEL-2 melanoma, with SK-MEL-5 melanoma, in the assay on RPMI-8226 leukemia and in the assay with UO-31 renal was above 100 µM each time. In addition, the TGI in the assay with SK-OV-3 ovarian, with A498 renal, in the assay on OVCAR-3 ovarian, with SF-268 CNS, in the assay with NCI/ADR-RES ovarian and with HT29 colon was above 100 µM in each case. The TGI with HL-60(TB) leukemia, in the assay on UACC-257 melanoma, with SN12C renal and in the assay with RXF 393 renal was above 100 µM throughout.

On to `CC(=O)NC1C(OCc2ccccc2)OC(CO)C(O)C1OCC(=O)N1CCCC1C(=O)NC(CCC(=O)NCCCCCNc1c2ccccc2nc2cccc([N+](=O)[O-])c12)C(N)=O` (stereo not drawn), for which the TGI with MDA-N stood at 0.0499 µM; in the assay with HCT-15 colon, 0.0906 µM; in the assay on SK-MEL-2 melanoma, 0.0456 µM; in the assay with SK-MEL-5 melanoma, 0.0386 µM; with RPMI-8226 leukemia, 0.789 µM; with UO-31 renal it was 0.115 µM. Besides, the TGI stood at 0.538 µM in the assay on SK-OV-3 ovarian; 0.345 µM in the assay with A498 renal; 0.142 µM with OVCAR-3 ovarian; 0.0966 µM in the assay with SF-268 CNS; 1.09 µM in the assay on NCI/ADR-RES ovarian; 12.5 µM in the assay on HT29 colon. In addition, the TGI in the assay on HL-60(TB) leukemia was 3.98 µM; in the assay on UACC-257 melanoma, 0.327 µM; with SN12C renal, 0.0753 µM; in the assay with RXF 393 renal it was 0.0253 µM.
